Consider one compound from US7303876B2 (Applera Corporation, priority 2000, dated 2007).

Each structure is given as a SMILES string.

In one data set the test system is Liver tissue. Description: Liver tissue disaggregation by 1% surfactant with or without Proteinase K at 60° C. The conditions noted are these: 60° C., 1% surfactant.
Data set [1] in a line: Solubility of 1% cationic surfactants in 5M chaotropic salt solutions containing 2% Tween 20. The settings on record: 5M chaotropic salts, 2% Tween 20. An excerpt: The solubilities of several cationic surfactants were examined in different chaotropic salt solutions. The cationic surfactants examined were cetyltrimethylammonium bromide (CTAB), cetyltrimethylammonium chloride (CTACl), tetradecyltrimethylammonium bromide (TTAB), tetradecyltrimethylammonium chloride (TTACl), dodecyltrimethylammonium bromide (DTAB), dodecyltrimethylammonium (DTACl), dodecylethyidimethylammonium bromide (DEDTAB), decyltrimethylammonium bromide (D10TAB), and dodecyltriphenylphosphonium bromide (DTPB). Each of the cationic surfactants tested was presented in a 1% concentration. Each of the cationic surfactants was examined in a 5M solution of one of the chaotropic salts containing 2% Tween 20. Each cationic surfactant and salt combination was tested at pH 6 (50 mM MES), pH 8 (50 mM Tris-HCl), and pH 10 (50 mM AMP).

The next data set concerns Calf thymus DNA. Description: Effect of DTAB on DNA recovery when added before, during, and after DNA binding to GF/B. The settings on record: pretreatment with 5M salt with 1% DTAB (D+) versus without (D−). As for the experimental part:
The inhibitory effect of the cationic surfactant, DTAB, was further examined. DTAB was introduced at various points of the purification reaction, before DNA binding, during binding, or after DNA binding has occurred on the solid phase. DNA binding and purification procedures were carried out using GF/B glass fiber filters (in a 96-well format) on the ABI PRISM 6100.
In set A, the GF/B membrane was pretreated with 100 μl of liquid lacking (A−) or containing (A+) 1% DTAB. Calf thymus DNA (8 μg) was then bound in 800 μL of 50 mM MES, pH 6.0, 20 mM EDTA, and 5 M salt (either NaBr or GUSCN).
In set B, the membranes were not prewashed. Calf thymus DNA (8 μg) was bound to GF/B glass fiber filters in 800 μl of 50 mM MES, pH, 6.0, 20 mM EDTA, and 5 M salt (either NaBr or GuSCN). Following binding, the membranes were washed in 50 mM MES, pH 6.0, 20 mM EDTA and 5 M salt (either NaBr or GuSCN) either lacking (B−) or containing (B+) 1% DTAB.
In set C, the membranes were not prewashed. Calf thymus DNA (8 μg) was bound to GF/B glass fiber filters in 800 μl of 50 mM MES, pH 6.0, 20 mM EDTA, and 5 M salt (either NaBr or GUSCN) either lacking (C−) or containing (C+) 1% DTAB.
In set D, the GF/B membrane was pretreated with 100 μl of 5 M salt (either NaBr or GuSCN) lacking (A−) or containing (A+) 1% DTAB. […]

With `CCCCCCCCCCCC[N+](C)(C)C.[Br-]` [DTAB, dodecyltrimethylammonium bromide], the “Tissue Disaggregation” value was 0 in the data set on Liver tissue (Fifteen Minutes Incubation, Proteinase K not present (N)); 2 in the data set with Liver tissue (Fifteen Minutes Incubation, Proteinase K present (Y)); 0 in the data set on Liver tissue (Fifty-Two Minutes Incubation, Proteinase K not present (N)); 3 with Liver tissue (Fifty-Two Minutes Incubation, Proteinase K present (Y)). In addition, the “relative solubility in chaotropic salt solutions (in words)” value in data set [1] is reported as “more soluble than larger surfactants”. Moreover, the “subsequent binding of nucleic acid to GF/B” value with Calf thymus DNA was “did not appear to influence subsequent binding of nucleic acid”.
